The target of one test is T1, CXCR3-PK1 (Homo sapiens, UniProt P49682).
T1 construct: expressed in transfected cells; host or cells: HEK293 cells stably expressing beta-gal enzyme acceptor (PathHunter, DiscoveRx), transiently transfected
T1 sequence (P49682 1-368): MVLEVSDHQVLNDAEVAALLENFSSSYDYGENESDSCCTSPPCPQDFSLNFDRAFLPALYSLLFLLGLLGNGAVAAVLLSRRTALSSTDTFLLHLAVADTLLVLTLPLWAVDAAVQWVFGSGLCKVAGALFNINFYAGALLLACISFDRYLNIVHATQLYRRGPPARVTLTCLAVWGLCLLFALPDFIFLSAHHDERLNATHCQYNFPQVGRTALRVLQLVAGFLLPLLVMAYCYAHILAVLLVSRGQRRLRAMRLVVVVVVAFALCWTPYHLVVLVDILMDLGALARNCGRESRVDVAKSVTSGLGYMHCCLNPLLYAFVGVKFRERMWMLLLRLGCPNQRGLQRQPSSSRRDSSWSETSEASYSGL
Description: β-arrestin 2 recruitment assay (PathHunter, DiscoveRx), CXCR3-PK1 construct. The conditions noted are these: for CXCR3-PK1 pEC50 ± SEM: HEK293-T cells, PathHunter, two to three experiments in triplicate. The class given is cell-based. An outline of the steps:
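HEK293 cells stably expressing β-gal enzyme acceptor, transiently transfected with PK1-tagged wild-type CXCR3, seeded overnight at 37°C. Test compounds or CXCL11 at various concentrations in PBS pH 7.4 with 0.20% BSA, 4 h; detection mix 60 min at room temperature. β-gal fragment complementation read by chemiluminescence.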
(Arrestin recruitment assays detect the binding of arrestin to an activated receptor.)

A further test addresses T2, FLAG-CXCR3 (Homo sapiens, UniProt P49682).
T2 construct: expressed in transfected cells; host or cells: HEK293T cells, transient
T2 sequence (P49682 1-368): T1 sequence (P49682 1-368)
Nature of the test: ELISA based internalization assay. It is filed as cell-based. The conditions noted are these: CXCL11 100 nM, modulators 10 µM, 1h at 37°C; Figure 4B. Here is the method:
Enzyme-linked immunosorbent assay based internalization assay. The day after transfection with FLAG-CXCR3, cells were trypsinized, resuspended into fresh culture medium and plated in poly(D-lysine)-coated 48-well assay plates. 48h after transfection the medium was replaced by fresh DMEM w/o serum containing one concentration of the endogenous ligand CXCL11 (100 nM) or the positive allosteric modulators (10 µM) and incubated for 1h at 37°C. The cells were fixed with 4% formaldehyde solution and stained with monoclonal Anti-Flag antibody (Sigma-Aldrich Life Science, St. Louis, MO) and subsequently with Anti-Mouse IgG-Peroxidase Antibody produced in rabbit. […] The reaction was stopped with 1M H2SO4 and the resulting color was detected at 492 nm using a microplate reader Clariostar (BMG labtech, Ortenberg, Germany).
The effect of FAUC1036 on receptor internalization was investigated by scanning laser confocal microscopy and ELISA-based assay. […] The quantification of receptor internalization upon the treatment with the endogenous agonists and with either β-arrestin 2 biased FAUC1036 or G-protein biased FAUC1104 was performed with ELISA based assay. The HEK293T cells transiently expressing FLAG-CXCR3 were stimulated with compounds and chemokines for one hour, washed, fixed and the amount of FLAG-CXCR3 present on the surface was detected by anti-FLAG antibody.

Test [1] relates to HEK293 cells transiently transfected with CXCR3. Nature of the test: Transwell migration assay. It is filed as cell-based, human. The conditions noted are these: for influence on CXCL11 induced migration: cells pre-incubated 15 minutes, compound in both chambers, CXCL11 as chemoattractant, Figure 5B; for induced migration compared to buffer control: compound applied to the source reservoir, on its own, 5 h, Figure 5A. On the procedure: Transwell migration assay. HEK-293 cells were maintained in DMEM medium supplemented with 10% FBS and 1% penicillin/streptomycin. For DNA transfection, 5 µg plasmid DNA (CXCR3) was mixed with TE buffer to give a final of 105 µl solution and 15 µl CaCl2 (2M) was added. The DNA mixture was then dripped into 120 µl 2x HBSS solution, and the mixture was allowed to form calcium-phosphate precipitates for 45 minutes. The DNA/calcium-phosphate precipitate was dripped onto HEK293 cells (50% confluent in T25 flask), where the medium had been renewed and reduced to 1.5 ml 30 minutes prior to transfection. The cells were split and used for assays 48 h after transfection.
Migration of serum-starved HEK293 cell transiently transfected with CXCR3 was assessed using Transwell™ membranes (Costar; 8-µm pore). Filters were coated with 10 µg•mL^-1 fibronectin (in PBS 30 minutes at room temperature). The fibronectin solution was removed and the filters allowed to air-dry. The filters were placed in a 24-well dish that contained low serum (0.2%) DMEM supplemented with agonists or control buffer. HEK293 cells suspended in 0.2% serum DMEM containing test compounds were added to the upper chamber (1 × 10^5 cells/well). Cells were allowed to migrate for 5 h at 37 °C. Nonmigrated cells were removed from the top filter surface with a cotton swab. Migrated cells, attached to the bottom surface, were fixed in 3.7% formaldehyde (in PBS) and dyed with crystal violet. Transmigrated cells were counted in 5 predefined areas on the membrane using 20X objective.
To investigate the influence of FAUC1036 and FAUC1104 on CXCR3 induced migration, the inventors used these compounds alongside CXCL11 in a standard transwell assay with HEK293 cells transiently transfected with CXCR3. […] To test whether FAUC1036 and FAUC1104 influence CXCL11 induced migration, the inventors pre-incubated the cells with these compounds for 15 minutes and then set up the migration assay in the presence of either compound in both the top chamber (sink) containing the cells and in the lower chamber (source) containing CXCL11 as chemoattractant.

`COc1ccc(C(=O)CCC(=O)N2Cc3ccccc3C[C@H]2C(=O)NCCCC[C@H](NC(=O)OC(C)(C)C)C(=O)NCC(c2ccccc2)c2ccccc2)cc1` [Compound 14, Tert-butyl ((S)-1-((2,2-diphenylethyl)amino)-6-((S)-2-(4-(4-methoxyphenyl)-4-oxobutanoyl)-1,2,3,4-tetrahydroisoquinoline-3-carboxamido)-1-oxohexan-2-yl)carbomate]: the “β-arrestin 2 recruitment, intrinsic agonism (result in words)” value on CXCR3-PK1 is recorded as “complete loss of intrinsic agonistic properties”. For the same compound, the “CXCR3-PK1 pEC50 ± SEM” value on CXCR3-PK1 (CXCR3-PK1) is listed as “No effect”. Besides, on FLAG-CXCR3, the “receptor internalization (ELISA quantification)” value is on record as “does not induce receptor internalization”. Further, in test [1], the “chemotaxis (result in words)” value is listed as “strong chemotaxis”, the “influence on CXCL11 induced migration” value was “significantly higher CXCL11 induced migration” and the “induced migration compared to buffer control” value is reported as “approximately 0.25 fold”.

Turning to `CC(C)(C)OC(=O)N[C@@H](CCCCNC(=O)[C@@H]1Cc2ccccc2CN1C(=O)CCC(=O)c1ccccc1)C(=O)NCC(c1ccccc1)c1ccccc1` [Compound 11, Tert-butyl ((S)-1-((2,2-diphenylethyl)amino)-1-oxo-6-((S)-2-(4-oxo-4-phenylbutanoyl)-1,2,3,4-tertahydroisoquinoline-3-carboxamido)hexan-2-yl)carbamate], at CXCR3-PK1, the “β-arrestin 2 recruitment, intrinsic agonism (result in words)” value is recorded as “activates the β2-arrestin recruitment”. The “CXCR3-PK1 efficacy (%)” value at CXCR3-PK1 (% of CXCL11 mediated effect, CXCR3-PK1, listed as 11/FAUC103 6) came to 30±5%. Further, the Emax on CXCR3-PK1 (% of CXCL11 mediated effect, CXCR3-PK1, read-out: CXCR3-PK1 efficacy (%) (converted)) was 30%. For the same compound, the “CXCR3-PK1 pEC50 ± SEM” value on CXCR3-PK1 (CXCR3-PK1, listed as 11/FAUC103 6) was 6.64±0.38. Also, the “CXCR3-PK1 pEC50 ± SEM” value on CXCR3-PK1 (CXCR3-PK1, listed as FAUC1036) was 6.64 ± 0.38. The “receptor internalization (ELISA quantification)” value on FLAG-CXCR3 is reported as “induced receptor internalization”. For the same compound, in test [1], the “chemotaxis (result in words)” value is recorded as “weak chemotaxis”, the “influence on CXCL11 induced migration” value was “no antagonizing effect” and the “induced migration compared to buffer control” value is recorded as “approximately 0.25 fold”.

(Values after patent publication EP3156398A1, “AGONISTS OF THE CHEMOKINE RECEPTOR CXCR3” (Friedrich-Alexander-Universität Erlangen-Nürnberg, priority 2015, dated 2017).)
